From patent publication US10800752B2, “Substituted naphtho[2,3-b]furans as water-soluble prodrugs for preventing and/or treating cancer” (BOSTON BIOMEDICAL, INC., priority 2015, dated 2020)
Structures can show the parent of a compound that is named as a salt.

How the values were obtained:
[1] = Evaluation of a conversion rate to 2-acetylnaphtho[2,3-b]furan-4,9-dione in human plasma; type: in vitro ADME; settings: 1 umol/L
Outline: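 Compounds at 1 umol/L incubated at 37° C in human plasma, CD1 mouse plasma or pH 7.4 phosphate buffer, sampled up to 120 minutes. After acidified acetonitrile protein removal, parent loss and conversion to 2-acetylnaphtho[2,3-b]furan-4,9-dione measured by LC-MS (ESI positive).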

[2] = Evaluation of a conversion rate to 2-acetylnaphtho[2,3-b]furan-4,9-dione in CD1 mouse plasma; type: in vitro ADME; settings: 1 umol/L
Method: For test compounds, the decrease rate of the test compounds and the conversion rate thereof to 2-acetylnaphtho[2,3-b]furan-4,9-dione in human plasma, CD1 mouse plasma, and pH 7.4 phosphate buffer solution were measured.
Test compounds were incubated at the concentration of 1 umol/L in human plasma (cat. no. 12250210, COSMO BIO), CD1 mouse plasma (cat. no. AP3054, KAC), and phosphate buffer solution at 37° C., and removed at predetermined times (0, 5, 10, 30, 60, and 120 minutes). After protein-removing treatment was performed, they are analyzed with LC-MS. It should be noted that the protein-removing treatment used acetonitrile containing: 10% volume of 1 mol/L hydrochloric acid; 1% volume of 46% citric acid; and phenytoin as an internal standard.
The measurement condition of LC-MS is as described below. LC-MS condition column: Kinetex 2.6 u PFP 100 A 50×2.1 mm Column temperature: 40° C.
Mobile phase: A: 0.1% formic acid-containing water
• B: 0.1% formic acid-containing acetonitrile A/B(min): 95/5(0)→5/95(3)→5/95(4)→95/5(4.1)→95/5(6) Flow rate: 0.4 mL/min Detection: ESI (positive mode) Injection volume: 10 uL
Measurement values are calculated from the peak area ratio in LC-MS between an internal standard material, phenytoin and an active form, 2-acetylnaphtho[2,3-b]furan-4,9-dione, and are expressed in %.
In the same way as Example 6, the incubation time was set as 120 minutes later, and the conversion rate of each of various test compounds to 2-acetylnaphtho[2,3-b]furan-4,9-dione in human plasma, CD1 mouse plasma, and pH 7.4 phosphate buffer solution was measured. A series of the present compounds were confirmed to be converted to 2-acetylnaphtho[2,3-b]furan-4,9-dione in pH 7.4 phosphate buffer solution in addition to human plasma and CD1 mouse plasma. Therefore, a series of the test compounds of the present invention were confirmed to be converted to the activated form via a route other than an enzymatic conversion.

[3] = Evaluation of a conversion rate to 2-acetylnaphtho[2,3-b]furan-4,9-dione in pH 7.4 phosphate buffer solution; type: physicochemical; settings: Phosphate buffer solution (pH 7.4), 1 umol/L, 37° C., incubation time 120 min
Outline: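 Compounds at 1 umol/L were incubated at 37° C in human plasma, CD1 mouse plasma or pH 7.4 phosphate buffer, sampled up to 120 minutes, acid/acetonitrile-deproteinised and analysed by LC-MS (ESI positive). Conversion (%) derived from the peak area ratio of the active form to phenytoin internal standard.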

[4] = Solution stability test; type: physicochemical; settings: for % Residual ratio: 25 umol/L
Method: For Example 6, Example 11, and Example 22, the stability in each pH was measured. Test compounds at a concentration of 25 umol/L in respective buffer solutions prepared at pH 2.0, 3.0, 5.0, 7.4, and 9.0 were allowed to stand at 25° C. After 0, 3, 6, 9, 12, and 24 hours, they were measured with HPLC.
The buffer solutions used at respective pHs are as described below. pH 2.0: 50 mmol/L glycine buffer solution pH 3.0: 50 mmol/L citrate buffer solution pH 5.0: 50 mmol/L citrate buffer solution pH 7.4: 50 mmol/L phosphate buffer solution pH 9.0: 50 mmol/L glycine buffer solution
The measurement condition of HPLC is as described below.
Column temperature: 40° C.
Mobile phase: A: 0.1% trifluoroacetic acid-containing water

[5] = Solubility test; settings: for solubility at 24 hours: pH 2, aqueous buffer, thermodynamic from solid
[6] = type: in vivo, CD1 (ICR) mice; settings: orally administered to mice
Text: It was then centrifuged to obtain plasma.

[7] = Pharmacokinetics test, intravenous administration; settings: intravenously administered to mice
[8] = Human plasma, 37° C., incubation time 120 min
[9] = CD1 mouse plasma, 37° C., incubation time 120 min
[10] = 50 mmol/L glycine buffer solution (pH 2.0), room temperature, 24 hours shaking

With `CC(=O)c1cc2c(OC(=O)OCCC[C@H](N)C(=O)O)c3ccccc3c(OC(=O)OCCC[C@H](N)C(=O)O)c2o1` [Example 22] the “% Measurement value (conversion rate to 2-acetylnaphtho[2,3-b]furan-4,9-dione)” value (shortened to “% Measurement value”) ([1]; human, 120 min) was 37%, the “% Measurement value” value ([2]; CD1, mouse, 120 min) was 56% and the “% Measurement value” value [3] was 22%. The “stability in solution (in words)” value ([4]; pH 2.0, 25° C.) was “sufficient stability”, the “% Residual ratio” value ([4]; pH 2.0, 25° C., 0 hr) was 100% and the “% Residual ratio” value ([4]; pH 2.0, 25° C., 3 hr) was 97.0%. For the same compound, the “% Residual ratio” value ([4]; pH 2.0, 25° C., 6 hr) was 96.3%, the “% Residual ratio” value ([4]; pH 2.0, 25° C., 9 hr) was 97.8% and the “% Residual ratio” value ([4]; pH 2.0, 25° C., 12 hr) was 97.1%. For the same compound, the “% Residual ratio” value ([4]; pH 2.0, 25° C., 24 hr) was 91.8%, the “stability in solution (in words)” value ([4]; pH 3.0, 25° C.) was “sufficient stability” and the “% Residual ratio” value ([4]; pH 3.0, 25° C., 0 hr) was 100%. The “% Residual ratio” value ([4]; pH 3.0, 25° C., 3 hr) was 98.6%, the “% Residual ratio” value ([4]; pH 3.0, 25° C., 6 hr) was 97.8% and the “% Residual ratio” value ([4]; pH 3.0, 25° C., 9 hr) was 96.9%. For the same compound, the “% Residual ratio” value ([4]; pH 3.0, 25° C., 12 hr) was 96.0%, the “% Residual ratio” value ([4]; pH 3.0, 25° C., 24 hr) was 92.6% and the “% Residual ratio” value ([4]; pH 5.0, 25° C., 0 hr) was 100%. For the same compound, the “% Residual ratio” value ([4]; pH 5.0, 25° C., 3 hr) was 81.2%, the “% Residual ratio” value ([4]; pH 5.0, 25° C., 6 hr) was 69.4% and the “% Residual ratio” value ([4]; pH 5.0, 25° C., 9 hr) was 58.8%. For the same compound, the “% Residual ratio” value ([4]; pH 5.0, 25° C., 12 hr) was 49.7%, the “% Residual ratio” value ([4]; pH 5.0, 25° C., 24 hr) was 24.5% and the “% Residual ratio” value ([4]; pH 7.4, 25° C., 0 hr) was 100%. For the same compound, the “% Residual ratio” value ([4]; pH 7.4, 25° C., 3 hr) was 0%, the “% Residual ratio” value ([4]; pH 7.4, 25° C., 6 hr) was 0% and the “% Residual ratio” value ([4]; pH 7.4, 25° C., 9 hr) was 0%. For the same compound, the “% Residual ratio” value ([4]; pH 7.4, 25° C., 12 hr) was 0%, the “% Residual ratio” value ([4]; pH 7.4, 25° C., 24 hr) was 0% and the “% Residual ratio” value ([4]; pH 9.0, 25° C., 0 hr) was 100%. The “% Residual ratio” value ([4]; pH 9.0, 25° C., 3 hr) was 0%, the “% Residual ratio” value ([4]; pH 9.0, 25° C., 6 hr) was 0% and the “% Residual ratio” value ([4]; pH 9.0, 25° C., 9 hr) was 0%. The “% Residual ratio” value ([4]; pH 9.0, 25° C., 12 hr) was 0%, the “% Residual ratio” value ([4]; pH 9.0, 25° C., 24 hr) was 0% and the solubility at 24 hours ([5]; glycine buffer solution) was > 5000 µg/mL.

In the case of `CC(=O)c1cc2c(OC(=O)NCCNCCC(=O)O)c3ccccc3c(OC(=O)NCCNCCC(=O)O)c2o1` [Example 5, 3,3′-((((((2-Acetylnaphtho[2,3-b]furan-4,9-diyl)bis(oxy))bis(carbonyl))bis-(azanediyl))bis(ethane-2,1-diyl))bis(azanediyl))dipropionic acid dihydrochloride], the “% Measurement value” value ([3]; dihydrochloride) is reported as 70%, the “concentration of 2-acetylnaphtho[2,3-b]furan-4,9-dione (Activated form 1) observed (in words)” value [6] is reported as “high concentration” and the “production of 2-acetylnaphtho[2,3-b]furan-4,9-dione (Activated form 1) (in words)” value (shortened to “production”) [7] is reported as “rapidly produced”.

With `CC(=O)c1cc2c(OC(=O)NCCCCCN)c3ccccc3c(O)c2o1.Cl` [Example 72] the “% Measurement value” value [1, 8] was 53%, the “% Measurement value” value [2, 9] was 42% and the “% Measurement value” value [3] was 38%. For the same compound, the “Solubility in pH 2.0 buffer solution” value [5, 10] was 2.4 mg/mL.

In the case of `CC(=O)c1cc2c(OC(=O)NC3CNC3)c3ccccc3c(OC(=O)NC3CNC3)c2o1.Cl.Cl` [Example 10], the “% Measurement value” value [1, 8] is reported as 89%, the “% Measurement value” value [2, 9] is reported as 59% and the “% Measurement value” value [3] is reported as 58%. The “Solubility in pH 2.0 buffer solution” value [5, 10] was >5.0 mg/mL.

For `CC(=O)c1cc2c(OC(=O)NCCNCC(=O)NCC(=O)O)c3ccccc3c(OC(=O)NCCNCC(=O)NCC(=O)O)c2o1.Cl.Cl` [Example 41], the “% Measurement value” value [1, 8] was 86%, the “% Measurement value” value [2, 9] was 81% and the “% Measurement value” value [3] was 52%. The “Solubility in pH 2.0 buffer solution” value [5, 10] was >5.0 mg/mL.

For `CC(=O)c1cc2c(OC(=O)NCCNCC(=O)O)c3ccccc3c(OC(=O)NCCNCC(=O)O)c2o1` [Example 4, 2,2′-((((((2-Acetylnaphtho[2,3-b]furan-4,9-diyl)bis(oxy))bis(carbonyl))bis(azanediyl))bis(ethane-2,1-diyl))bis(azanediyl))diacetic acid dihydrochloride], the “% Measurement value” value ([3]; dihydrochloride) was 53%, the “concentration of 2-acetylnaphtho[2,3-b]furan-4,9-dione (Activated form 1) observed (in words)” value [6] was “high concentration” and the solubility at 24 hours ([5]; Solubility in pH 2.0 buffer solution, 50 mmol/L glycine buffer solution (pH 2.0), room temperature, 24 hours shaking) was > 5000 µg/mL. The “production” value [7] was “rapidly produced”.

In the case of `CC(=O)c1cc2c(OC(=O)OCCCCNCC(=O)O)c3ccccc3c(OC(=O)OCCCCNCC(=O)O)c2o1` [Example 23, 2,2′-((((((2-Acetylnaphtho[2,3-b]furan-4,9-diyl)bis(oxy)bis(carbonyl))bis(oxy))bis(butane-4,1-diyl))bis(azanediyl)diacetic acid dihydrochloride], the solubility at 24 hours ([5]; glycine buffer solution) is reported as > 5000 µg/mL and the “production” value [7] is reported as “rapidly produced”.
